These results are taken from US9751885B2, “Cyclopropanamine compound and use thereof” (Takeda Pharmaceutical Company Limited, priority 2012, dated 2017).

Series [1] relates to Gad1 H3K4me2 level in rat primary culture neurons. The experiment in a line: Gad1 H3K4 methylation induction activity in rat primary culture neurons (ChIP-qPCR). The format is cell-based. To be noted: Rattus norvegicus, Neuron, 72 h, control without compound = 100%; for activity at 1 µM: read-out: Gad1 H3K4me2 induction activity (%), compound 1 μM, 3 days, rat primary culture neurons; for activity at 10 µM: read-out: Gad1 H3K4me2 induction activity (%), compound 10 μM, 3 days, rat primary culture neurons. As to the method:
Gad1 H3K4 Methylation Induction Activity in Rat Primary Culture Neurons
Thereafter, the compound was added to final concentrations of 1 or 10 μM, and the cells were further cultured for 3 days. The culture supernatant was aspirated, ice-cold PBS was added, and the cell suspension was collected on ice using CELL SCRAPER (IWAKI). […] (750 μL). Furthermore, 0.3% NP40/cell lysis buffer 1 (750 μL) was added, and the cells were lysed by incubating for 5 min on ice.
Using the DNA obtained by the chromatin immunoprecipitation as a template, quantitative PCR of the Gad1 gene upstream genomic region was performed, and the measurement value was taken as the Gad1 H3K4me2 level. […] The Gad1 H3K4me2 induction by the compound was expressed by the H3K4me2 level when the compound was added, as compared to the H3K4me2 level of the control (without addition of the compound) as 100%.
A general note: Quantitative PCR measures a nucleic acid by following its amplification.

For series [2], the system named is white blood cell number, red blood cell number, platelet number. The experiment in a line: Evaluation of blood cell number in mouse. The series is classed as in vivo. The note with it: oral, Day 2 after administration. An outline of the steps: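 Male ICR mice dosed orally at 1, 10, 50 or 100 mg/kg (suspension in 0.5% methylcellulose/0.02% citric acid/water); whole blood collected on Day 2. White cell, red cell and platelet counts per unit volume by automated haematology analyser, expressed as % of mean of untreated control group.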

Series [3] can be described thus: Evaluation of hippocampal distribution in mouse. The format is in vivo. The note with it: male ICR mice, 10 mg/kg oral; for concentration at 1 h: 1 hr after administration; for concentration at 0.5 h: 0.5 hr after administration. The method, boiled down: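 Male ICR mice dosed orally at 10 mg/kg as suspension in 0.5% methylcellulose/0.02% citric acid/water. Plasma and hippocampus sampled together at 0.5, 1 or 1.5 h; LC/MS/MS concentrations gave hippocampus/plasma ratio.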

The mark [4] stands for this setting: hippocampus, read-out: hippocampus concentration (mean).
Setting [5] is: plasma, read-out: plasma concentration (mean).

Structures can show the parent of a compound that is named as a salt. Where two headings read alike, the source gives them in different places.

For the compound `Cn1cc(NC(=O)c2cccc([C@@H]3C[C@H]3NC3CCCC3)c2)cn1` (relative stereo) [Example 172, 3-(trans-2-(cyclopentylamino)cyclopropyl)-N-(1-methyl-1H-pyrazol-4-yl)benzamide dihydrochloride], in series [1], the activity at 1 µM amounted to 145% and the activity at 10 µM was found to be 204%. Besides, in series [2] (10 mg/kg), the “platelet number, percentage of compound administration group compared to control group, mean” value (shortened to “platelet number, percentage”) is recorded as 97.0%; the “red blood cell number, percentage of compound administration group compared to control group, mean” value (“red blood cell number, percentage” for short) is 99.0%; the “white blood cell number, percentage of compound administration group compared to control group, mean” value (from here on “white blood cell number, percentage”) stood at 101.3%. In series [2] (100 mg/kg), the “platelet number, percentage” value was found to be 99.6%; the “red blood cell number, percentage” value was determined as 97.7%; the “white blood cell number, percentage” value was determined as 130.0%. For the same compound, the concentration at 1 h in series [3] (setting [4]) worked out at 419 ng/g. In addition, the concentration at 1 h in series [3] (setting [5]) turned out to be 556 ng/mL.

Regarding `O=C(NC1CCOCC1)c1cccc([C@@H]2C[C@H]2NC2CCC2)c1` (relative stereo) [Example 179, 3-(trans-2-(cyclobutylamino)cyclopropyl)-N-(tetrahydro-2H-pyran-4-yl)benzamide hydrochloride], in series [1], the activity at 1 µM was found to be 175% and the activity at 10 µM worked out at 123%. In addition, in series [2] (10 mg/kg), the “platelet number, percentage” value was determined as 94.8%; the “red blood cell number, percentage” value is listed as 102.5%; the “white blood cell number, percentage” value is reported as 94.2%. Also, in series [2] (100 mg/kg), the “platelet number, percentage” value is 92.5%; the “red blood cell number, percentage” value was determined as 100.4%; the “white blood cell number, percentage” value was found to be 121.2%. For the same compound, in series [3] (setting [4]), the concentration at 0.5 h came out at 321 ng/g. Further, the concentration at 0.5 h in series [3] (setting [5]) is 421 ng/mL.

`O=C(NC1CCN(CC(F)(F)F)CC1)c1cccc([C@@H]2C[C@H]2NCC2CC2)c1` (relative stereo) [Example 108, 3-(trans-2-((cyclopropylmethyl)amino)cyclopropyl)-N-(1-(2,2,2-trifluoroethyl)piperidin-4-yl)benzamide dihydrochloride]: in series [1], the activity at 1 µM was found to be 384% and the activity at 10 µM came out at 268%. In series [2] (10 mg/kg), the “platelet number, percentage” value was found to be 101.9%; the “red blood cell number, percentage” value was found to be 99.0%; the “white blood cell number, percentage” value is given as 127.7%. Also, in series [2] (100 mg/kg), the “platelet number, percentage” value was determined as 94.2%; the “red blood cell number, percentage” value stood at 98.7%; the “white blood cell number, percentage” value came to 129.4%. In series [3] (setting [4]), the concentration at 0.5 h is 983 ng/g. Moreover, the concentration at 0.5 h in series [3] (setting [5]) was found to be 684 ng/mL.

As for `Cc1nnc(NC(=O)c2cccc([C@@H]3C[C@H]3NC3CCOCC3)c2)s1` (relative stereo) [Example 165, N-(5-methyl-1,3,4-thiadiazol-2-yl)-3-(trans-2-(tetrahydro-2H-pyran-4-ylamino)cyclopropyl)benzamide fumarate], in series [1], the activity at 1 µM amounted to 272% and the activity at 10 µM turned out to be 373%. Moreover, in series [2] (10 mg/kg), the “platelet number, percentage” value is recorded as 99.3%; the “red blood cell number, percentage” value is 100.9%; the “white blood cell number, percentage” value is given as 104.4%. In series [2] (100 mg/kg), the “platelet number, percentage” value amounted to 85.6%; the “red blood cell number, percentage” value is recorded as 103.2%; the “white blood cell number, percentage” value was determined as 87.0%. Moreover, the concentration at 1 h in series [3] (setting [4]) is 376 ng/g. Further, in series [3] (setting [5]), the concentration at 1 h is 1840 ng/mL.

Turning to `O=C(NC1CCC(F)(F)CC1)c1cccc([C@@H]2C[C@H]2NC2CCOCC2)c1` (relative stereo) [Example 177, N-(4,4-difluorocyclohexyl)-3-(trans-2-(tetrahydro-2H-pyran-4-ylamino)cyclopropyl)benzamide hydrochloride], in series [1], the activity at 1 µM was 340% and the activity at 10 µM was found to be 200%. Besides, in series [2] (10 mg/kg), the “platelet number, percentage” value was found to be 101.3%; the “red blood cell number, percentage” value stood at 94.5%; the “white blood cell number, percentage” value turned out to be 136.9%. In series [2] (100 mg/kg), the “platelet number, percentage” value stood at 97.4%; the “red blood cell number, percentage” value is on record as 99.0%; the “white blood cell number, percentage” value was determined as 97.1%. For the same compound, the concentration at 1 h in series [3] (setting [4]) is 324 ng/g. In addition, the concentration at 1 h in series [3] (setting [5]) was found to be 630 ng/mL.

For `O=C(NC1CC(F)(F)C1)c1cccc([C@@H]2C[C@H]2NCC2CC2)c1` (relative stereo) [Example 99, 3-(trans-2-((cyclopropylmethyl)amino)cyclopropyl)-N-(3,3-difluorocyclobutyl)benzamide hydrochloride], in series [1], the activity at 1 µM turned out to be 174% and the activity at 10 µM came out at 181%. Further, in series [2] (10 mg/kg), the “platelet number, percentage” value turned out to be 116.9%; the “red blood cell number, percentage” value came to 102.8%; the “white blood cell number, percentage” value turned out to be 66.0%. In series [2] (100 mg/kg), the “platelet number, percentage” value stood at 111.1%; the “red blood cell number, percentage” value turned out to be 101.5%; the “white blood cell number, percentage” value is 79.4%. In addition, the concentration at 1 h in series [3] (setting [4]) came to 283 ng/g. In series [3] (setting [5]), the concentration at 1 h is 143 ng/mL.

For the compound `CCn1cc(NC(=O)c2cccc([C@@H]3C[C@H]3NCC3CC3)c2)cn1` (relative stereo) [Example 101, 3-(trans-2-((cyclopropylmethyl)amino)cyclopropyl)-N-(1-ethyl-1H-pyrazol-4-yl)benzamide dihydrochloride], in series [1], the activity at 1 µM came to 128% and the activity at 10 µM is 135%. Further, in series [2] (10 mg/kg), the “platelet number, percentage” value was found to be 107.9%; the “red blood cell number, percentage” value came to 99.2%; the “white blood cell number, percentage” value is 121.8%. In series [2] (100 mg/kg), the “platelet number, percentage” value is reported as 108.9%; the “red blood cell number, percentage” value was 98.5%; the “white blood cell number, percentage” value was found to be 100.4%. Besides, in series [3] (setting [4]), the concentration at 0.5 h was 181 ng/g. The concentration at 0.5 h in series [3] (setting [5]) is 907 ng/mL.

As for `Cc1cc(NC(=O)c2cccc([C@@H]3C[C@H]3NCC3CC3)c2)no1` (relative stereo) [Example 103, 3-(trans-2-((cyclopropylmethyl)amino)cyclopropyl)-N-(5-methyl-1,2-oxazol-3-yl)benzamide hydrochloride], in series [1], the activity at 1 µM was 139% and the activity at 10 µM worked out at 134%. In series [2] (10 mg/kg), the “platelet number, percentage” value was determined as 88.7%; the “red blood cell number, percentage” value worked out at 95.0%; the “white blood cell number, percentage” value was 100.9%. In series [2] (100 mg/kg), the “platelet number, percentage” value is listed as 96.8%; the “red blood cell number, percentage” value is 98.5%; the “white blood cell number, percentage” value worked out at 105.9%. For the same compound, in series [3] (setting [4]), the concentration at 1 h came out at 1030 ng/g. Moreover, the concentration at 1 h in series [3] (setting [5]) was 375 ng/mL.
